In patent US11078203B2 (OGEDA SA, priority 2017, dated 2021):

Experiments:
human NK-3 receptor [1] = biological target: T1, human NK-3 receptor (Homo sapiens, UniProt P29371); assay: cell-based
T1 sequence (P29371 1-465): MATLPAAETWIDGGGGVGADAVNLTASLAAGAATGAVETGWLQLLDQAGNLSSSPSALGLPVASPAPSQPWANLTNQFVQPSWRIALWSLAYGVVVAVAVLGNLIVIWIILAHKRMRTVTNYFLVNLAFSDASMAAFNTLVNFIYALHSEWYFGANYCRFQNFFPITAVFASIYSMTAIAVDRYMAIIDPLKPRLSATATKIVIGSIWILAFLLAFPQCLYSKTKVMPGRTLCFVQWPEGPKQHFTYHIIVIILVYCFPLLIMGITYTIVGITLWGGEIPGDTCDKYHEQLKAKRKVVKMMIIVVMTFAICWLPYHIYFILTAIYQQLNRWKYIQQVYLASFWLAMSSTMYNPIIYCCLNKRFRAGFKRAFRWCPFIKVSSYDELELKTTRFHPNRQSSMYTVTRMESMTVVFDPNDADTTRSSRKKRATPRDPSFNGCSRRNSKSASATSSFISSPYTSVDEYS
Experimental: Aequorin Assay with Human NK-3 Receptor.
The efficacy of compounds of the invention to inhibit NKA-mediated NK-3 receptor activation was assessed by an in vitro Aequorin functional assay. Chinese Hamster Ovary recombinant cells expressing the human NK-3 receptor and a construct that encodes the photoprotein apoaequorin were used for this assay. In the presence of the cofactor coelenterazine, apoaequorin emits a measurable luminescence that is proportional to the amount of intracellular (cytoplasmic) free calcium.
The antagonist activity of compounds of the invention is measured following pre-incubation (3 minutes) of the compound (at various concentrations) with the cells, followed by addition of the reference agonist (NKA) at a final concentration equivalent to the EC80 (3 nM) and recording of emitted light (FDSS 6000 Hamamatsu) over the subsequent 90-second period. The intensity of the emitted light is integrated using the reader software. Compound antagonist activity is measured based on the concentration-dependent inhibition of the luminescence response to the addition of Neurokinin A.

human NK-3 receptor [2] = biological target: T1, human NK-3 receptor; assay: 3H-SB222200 binding competition assay with human NK-3 receptor; design: expressed in transfected cells; membranes; details: read-out: Competitive binding assay with human NK-3 receptor hNK-3 (Ki)
Experimental: The affinity of compounds of the invention for the human NK-3 receptor was determined by measuring the ability of compounds of the invention to competitively and reversibly displace a well-characterized NK-3 radioligand in a concentration-dependent manner.
Membranes were prepared from Chinese hamster ovary recombinant cells stably expressing the human NK-3 receptor. The membranes were incubated with 5 nM ^3H-SB222200 (ARC) in a HEPES 25 mM/NaCl 0.1M/CaCl2 1 mM/MgCl2 5 mM/BSA 0.5%/Saponin 10 μg/ml buffer at pH 7.4 and various concentrations of compounds of the invention. The amount of ^3H-SB222200 bound to the receptor was determined after filtration by the quantification of membrane associated radioactivity using the TopCount-NXT reader (Packard).

## [2H]C([2H])([2H])c1nsc(-c2nnc3n2CCN(C(=O)c2ccc(F)cc2)[C@@H]3C)n1 [Deuterated fezolinetant, (R)-(4-fluorophenyl)-(8-methyl-3-(3-(methyl-d3)-1,2,4-thiadiazol-5-yl)-5,6-dihydro-[1,2,4]trizolo[4,3-a]pyrazin-7(8H)-yl)methanone]
Human NK-3 receptor [1]
  IC50: 13 nM
Human NK-3 receptor [2]
  Ki: 17 nM
